A word on the half-life: it is how long it takes for the measured level to halve.

Structures are written as SMILES. “Also recorded” adds a separate entry of the source. Where two headings read alike, the source gives them in different places.

Data set [1] in a line: Metabolic stability in human liver microsomes. The class given is in vitro ADME. Conditions: for Half-life in human liver microsomes (single determinations): Table 5; for half-life / half-life at 15 µg/mL: both sexes, human, microsomes. The protocol: The prodrugs were incubated with the human liver microsomes at 37° C. as an indication of the susceptibility of prodrugs to undergo bioconversion in the liver. The reactions were initiated by adding 1.5 μL of the prodrug stock solution (10 mg/mL in DMSO) to a preheated solution consisting of 748.5 μL potassium phosphate buffer solution (20 mM, pH 7.4, ionic strength 0.5), 200 μL NADPH, and 50 μLhuman liver microsomes (mixed gender, 0.5 ml at 20 mg/mL). The solutions were stirred at a constant temperature of 37° C. At appropriate intervals, 50 μLof samples were mixed with 100 μL of ice-cold MeOH. After immediate mixing and centrifugation (5 min at 14.000 rpm), the resulting clear supernatant was analyzed for the remaining prodrug by HPLC.

For data set [2], the system named is reconstructed human oral buccal epithelium cells (SkinEthic HOE, TR146 cells). The experiment in a line: In vitro buccal permeability (SkinEthic human oral epithelium). Type of data set: in vitro ADME. Conditions: for Species making up the buccal flux / formation of parent cannabinoid / Flux (buccal) / Flux compared with parent cannabinoid: Table 4; for Species making up the buccal flux / formation of parent cannabinoid / Species making up the buccal flux (parent vs intact prodrug): remark in flux cell; for Flux (buccal): suspension ca. 2 mg/ml in 5% EtOH/phosphate buffer pH 6.8, 37° C., receiver 15% HP-β-cyclodextrin; for Flux compared with parent cannabinoid: buccal flux relative to parent; for Buccal permeation compared with parent cannabinoid (in words): 5% ethanol suspension; for Species making up the buccal flux (parent vs intact prodrug): Table 2. As for the experimental part: The in vitro permeability studies were carried out in commercial reconstructed human oral buccal epithelium cells (SkinEthic™ human oral epithelium). The SkinEthic™ HOE model is composed of TR146 cells (derived from a squamous cell carcinoma of the buccal mucosa) cultivated on an inert polycarbonate filter at the air-liquid interface in a chemically defined medium. This model forms an epithelial tissue devoid of stratum corneum, resembling histologically to the mucosa of the oral cavity.
Upon receiving the cells, each insert (0.5 cm^2 or 0.33 cm^2) was placed in a plate containing 800 μL fresh medium at room temperature. The culture dishes were placed in the incubator at 37° C., 5% CO2, and saturated humidity overnight. Next day, the inserts were placed in a plate containing 800 μL 15% HP-β-cyclodextrin in H2O. The prodrugs were dissolved in 100% EtOH (5% (V/V) final conc.), and then sodium phosphate buffer solution (50 mM, pH 6.8, isotonic, 37° C.) was added (95% (V/V) final conc.). 400 μL of the prodrugs were applied as suspensions (ca. 2 mg/ml). The plates were stirred gently at 37° C. At appropriate intervals, the receptor compartment was sampled (100 μL) and replenished with fresh […] solution each time. The samples were mixed with 100 μL of MeOH, and analyzed for drug (both the parent cannabinoid and the prodrug) by HPLC-MS.
The buccal flux-values for the rate of delivery of drugs were determined from Fick's law of diffusion.

The nature of data set [3]: Stability in 80% human plasma (serum). Type of data set: in vitro ADME. Conditions: 80% human serum (pH 7.4) at 37° C.; for half-life: human, serum. The protocol:
The rates of the degradation of the prodrugs were determined in 80% human serum (pH 7.4) at 37° C. as an indication of the susceptibility of prodrugs to undergo bioconversion after reaching the circulation. The reactions were initiated by adding the first 10 μL of the prodrug stock solution (10 mg/mL in DMSO) to 200 μL preheated sodium phosphate buffer solution (50 mM, pH 7.4, ionic strength 0.5), and then adding 800 μL preheated human serum. The solutions were stirred at a constant temperature of 37° C. At appropriate intervals, 50 μL of samples were mixed with 150 μL of ice-cold MeOH. After immediate mixing and centrifugation (5 min at 14.000 rpm), the resulting clear supernatant was analyzed for the remaining prodrug by HPLC.

Data set [4] in a line: Stability in aqueous solutions (sodium phosphate buffer, 37° C.). The settings on record: for Half-life in aqueous solution: Table 5; for half-life: buffer. Type of data set: physicochemical. As for the experimental part:
[…] The solutions of prodrugs were prepared by adding 10 μL of stock solution (10 mg/mL in DMSO) to the preheated buffer. The solutions were stirred at a constant temperature of 37° C. At appropriate intervals, 75 μL of samples were mixed with 75 μL of MeOH and analyzed for remaining prodrug by HPLC.
The pseudo-first-order rate constants (kobs) and half-lives (t1/2) for the degradation of the prodrugs were determined from the linear slopes of the plots by taking the logarithm of the remaining prodrug over time. Equations: kobs=slope/−2.303 and t1/2=ln2/kobs.

In data set [5] the test system is reconstructed human epidermis cells. The experiment in a line: In vitro skin permeability (SkinEthic Episkin reconstructed human epidermis). The class given is in vitro ADME. The settings on record: for Skin permeation, applied compound (parent or intact prodrug): receiver 15% HP-beta-CD pH 7.4. As for the experimental part: The in vitro permeability studies were carried out in commercial reconstructed human epidermis cells (SkinEthic™ Episkin Reconstructed human epidermis). This model is composed of TR146 cells (derived from a squamous cell carcinoma of the buccal mucosa) cultivated on an inert polycarbonate filter at the air-liquid interface in a chemically defined medium. This model forms an epithelial tissue devoid of stratum corneum, resembling histologically to the mucosa of the oral cavity.
Upon receiving the cells, each insert (0.5 cm^2 or 0.33 cm^2) was placed in a plate containing 800 μL fresh medium at room temperature. The culture dishes were placed in the incubator at 37° C., 5% CO2, and saturated humidity overnight. Next day, the inserts were placed in a plate containing 800 μL 15% HP-β-cyclodextrin in H2O. CBD and CBG, and prodrugs CBDp27 and CBGp1 were dissolved in two different vehicles, 1:1:1 prop gly:water:EtOH/6% Brij 98, and 100% mineral oil. The receiver solution was 15% HP-beta-CD in phosphate buffer (pH 7.4). 400 μL the prodrugs were applied as suspensions (ca. 2 mg/ml). The plates were stirred gently at 37° C. At appropriate intervals, the receptor compartment was sampled (100 μL) and replenished with fresh […] solution each time. The samples were mixed with 100 μL of MeOH, and analyzed for drug (both the parent drug and prodrug) by HPLC-MS.
The flux-values for the rate of delivery of drugs were determined from Fick's law of diffusion.

Setting [6] is: pH 7.4, Table 5, 37° C., NADPH, read-out: Half-life in human liver microsomes (single determinations) (converted).
Setting [7] is: pH 7.4, Table 5, average of determinations, read-out: Half-life in human liver microsomes (avg.) (converted).
Where [8] appears, read: aqueous buffer pH 6.8, 37° C., single determinations.
Where [9] appears, read: pH 6.8, Table 5, aqueous buffer pH 6.8, 37° C., single determinations, read-out: Half-life in aqueous solution (converted).
Where [10] appears, read: pH 7.4, Table 3, 37° C., NADPH, read-out: Half-life in human liver microsomes (single determinations) (converted).
[11] abbreviates: pH 6.8, Table 3, aqueous buffer pH 6.8, 37° C., read-out: Half-life in aqueous solution (converted).

`CCCCCc1cc(O)c(C/C=C(\C)CCC=C(C)C)c(OC(=O)C2CCNC2)c1` (stereo not shown) [CBGp1, (E)-2-(3,7-dimethylocta-2,6-dien-1-yl)-3-hydroxy-5-pentylphenyl pyrrolidine-3-carboxylate]: the Half-life in human liver microsomes (single determinations) in data set [1] (37° C., NADPH) is 40.2 min. The half-life was 38.4 min in data set [1] (setting [6]); 39.6 min in data set [1] (setting [7]); 42 min in data set [3] (pH 7.4, Table 5); 30 min in data set [4] (setting [9]). In addition, in data set [2], the “Species making up the buccal flux / formation of parent cannabinoid” value is “(CBG + prodrug)”. The “Flux (buccal)” value in data set [2] was 111.79 ± 2.59 nmol/cm^2/h. Moreover, the Half-life in serum in data set [3] (Table 5) came to 44.4 min. The Half-life in aqueous solution in data set [4] (setting [8]) is 32.4 min. In addition, the entries for the “Skin permeation of prodrug relative to parent cannabinoid” value in data set [5] (mineral oil) and in data set [5] (solvent mix) were ~13 fold and > 300 fold, respectively. The figures for the “Skin permeation, applied compound (parent or intact prodrug)” value in data set [5] (vehicle mineral oil) and in data set [5] (vehicle solvent mix (1:1:1 prop gly:water:EtOH/6% Brij 98)) were 0.54 ± 0.19 nmol/cm^2/h and 148.0 ± 40.9 nmol/cm^2/h, respectively.

On to `CCCCCc1cc(OC(=O)N2CCN(C)CC2)c(C/C=C(\C)CCC=C(C)C)c(OC(=O)N2CCN(C)CC2)c1` [CBGp3, (E)-2-(3,7-dimethylocta-2,6-dien-1-yl)-5-pentyl-1,3-phenylene bis(4-methylpiperazine-1-carboxylate)], for which, in data set [1] (setting [7]), the half-life at 15 µg/mL is 114 min. In data set [2], the “Flux compared with parent cannabinoid” value is on record as 2.6-times better, the “Species making up the buccal flux / formation of parent cannabinoid” value is given as “NO significant formation of CBGp2 or” and the “Flux (buccal)” value is 30.60 ± 2.02 (prodrug) nmol/cm^2/h. In addition, in data set [2] (listed as bis-methylpiperazine carbamate prodrug of CBG), the “Flux compared with parent cannabinoid” value is listed as 2.6 times. Also, in data set [3] (Table 5), the Half-life in serum result was “No degradation”. For the same molecule, in data set [4] (setting [8]), the Half-life in aqueous solution came out at 22.8 min. The half-life in data set [4] (setting [9]) was 16.8 min.

As for `C=C(C)[C@@H]1CCC(C)=C[C@H]1c1c(OC(=O)N2CCN(C)CC2)cc(CCCCC)cc1OC(=O)N1CCN(C)CC1` [CBDp14, (1′R,2′R)-5′-methyl-4-pentyl-2′-(prop-1-en-2-yl)-1′,2′,3′,4′-tetrahydro-[1,1′-biphenyl]-2,6-diyl bis(4-methylpiperazine-1-carboxylate)], the half-life at 15 µg/mL in data set [1] (setting [10]) was 51.6 min. In addition, the “Buccal permeation compared with parent cannabinoid (in words)” value in data set [2] is reported as “better than that of CBD; also recorded: significantly improved permeability compared to CBD”. For the same molecule, the “Species making up the buccal flux (parent vs intact prodrug)” value in data set [2] was “only intact prodrug”. Also, in data set [3] (Table 3), the Half-life in serum entry is on record as “stable”. In addition, the half-life was 3000 min in data set [4] (Table 3 footnote f, 20% of ethanol in the solution, read-out: Half-life in aqueous solution with ethanol) and 150 min in data set [4] (setting [11]).

On to `CCCCCc1cc(OC(=O)N2CCNCC2)c2c(c1)OC(C)(C)[C@@H]1CCC(C)=C[C@@H]21` [THCp3, (6aR,10aR)-6,6,9-trimethyl-3-pentyl-6a,7,8,10a-tetrahydro-6H-benzo[c]chromen-1-yl piperazine-1-carboxylate], for which, in data set [1] (setting [7]), the half-life was 219 min. Moreover, in data set [2], the “Buccal permeation compared with parent cannabinoid (in words)” value is reported as “slightly better than THC”, the “Flux compared with parent cannabinoid” value is on record as 1.6-times better, the “Species making up the buccal flux / formation of parent cannabinoid” value is on record as “NO significant formation of THC” and the “Flux (buccal)” value was 31.30 ± 1.31 (prodrug) nmol/cm^2/h. Further, the Half-life in serum result in data set [3] (Table 5) is listed as “No degradation”. The same molecule registered a Half-life in aqueous solution in data set [4] (setting [8]) of 64.2 min. Moreover, the half-life in data set [4] (setting [9]) was 45.6 min.

On to `C=C(C)[C@@H]1CCC(C)=C[C@H]1c1c(O)cc(CCCCC)cc1OC(=O)CN1CCN(C)CC1` [CBDp7, (1′R,2′R)-6-hydroxy-5′-methyl-4-pentyl-2′-(prop-1-en-2-yl)-1′,2′,3′,4′-tetrahydro-[1,1′-biphenyl]-2-yl 2-(4-methylpiperazin-1-yl)acetate], for which the half-life was 7.2 min in data set [1] (setting [10]); 156 min in data set [3] (pH 7.4, Table 3); 9.6 min in data set [4] (setting [11]). In data set [2], the “Buccal permeation compared with parent cannabinoid (in words)” value is on record as “better than that of CBD”. Besides, in data set [2], the “Species making up the buccal flux (parent vs intact prodrug)” value is 1/3 CBD & 2/3.

Molecule `CCCCCc1cc(OC(=O)N2CCN(C)CC2)c2c(c1)OC(C)(C)[C@@H]1CCC(C)=C[C@@H]21` [THCp1, (6aR,10aR)-6,6,9-trimethyl-3-pentyl-6a,7,8,10a-tetrahydro-6H-benzo[c]chromen-1-yl 4-methylpiperazine-1-carboxylate] registered a Half-life in human liver microsomes (single determinations) in data set [1] (37° C., NADPH) of 301 min. Further, the half-life in data set [1] (setting [6]) was 158 min. Moreover, in data set [1] (setting [7]), the half-life was 230 min. For the same molecule, in data set [2], the “Flux compared with parent cannabinoid” value was “No improvement”, the “Species making up the buccal flux / formation of parent cannabinoid” value was “NO significant formation of THC” and the “Flux (buccal)” value was 19.22 ± 0.29 (prodrug) nmol/cm^2/h. Further, the Half-life in serum entry in data set [3] (Table 5) is on record as “No degradation”. Besides, in data set [4] (setting [8]), the Half-life in aqueous solution was determined as 24.6 min. Further, in data set [4] (setting [9]), the half-life is 39.6 min.

The record behind these values is US20220339150A1, “ENDOCANNABINOID SYSTEM-TARGETING PRODRUGS AND THERAPEUTIC USES THEREOF” (priority 2021, published 2022).
